Laboratory results: patent US10709709B2, “Substituted carbonucleoside derivatives useful as anticancer agents” (Pfizer Inc., priority 2016, dated 2020)

biological target: PRMT5/MEP50 protein complex (Homo sapiens (Human), UniProt O14744); experiment: PRMT5 biochemical assay (3H-SAM methylation of H4(1-21) peptide, filter plate scintillation); details: 10 nM PRMT5/MEP50 complex, 200 nM H4(1-21) peptide, 1 uM SAM, 25 minute incubation at room temperature
Protocol: Biochemical Assay Methods
Compounds were solubilized in DMSO and serially diluted, using 3-fold dilutions, into 100% DMSO at a concentration 50-fold greater than the desired assay concentration. Following dilution, 1 ul was added to an empty 96-well microtiter plate. PRMT5/MEP50 protein complex was combined with H4(1-21) peptide ([…]) in PRMT5 assay buffer (50 mM Tris pH 8.5, 50 mM NaCl, 5 mM MgCl2, 1 mM EDTA, 1 mM TCEP) and 44 ul was added to the microtiter plate containing compound. S-Adenosyl-L-methionine (SAM) was prepared by combining ^3H labelled SAM with unlabelled SAM in PRMT5 assay buffer such that the final SAM concentration was 10 uM and the specific activity was 0.2 uCi/ul. The reaction was initiated by adding 5 ul of SAM stock to the microtiter plate. The final reaction conditions were 10 nM PRMT5/MEP50 complex, 200 nM peptide and 1 uM SAM. Following a 25 minute incubation at room temperature, the reaction was stopped with the addition of 100 uL of 20% TCA. The 3H-peptide product was captured using a 96-well filter plate (MSIPN4B, Millipore) and washed 5 times with PBS buffer. Scintillation fluid (100 ul) was added to the dried filter plate and counted in a liquid scintillation counter. IC50 values were determined by fitting the data to the standard 4-parameter dose response equation using Pfizer proprietary software.
Results for the biochemical assay of examples are summarized in Table 1, shown as IC50 values in μM.

Sequence of PRMT5/MEP50 protein complex (O14744 other isoform, or with tags, fused parts or gaps): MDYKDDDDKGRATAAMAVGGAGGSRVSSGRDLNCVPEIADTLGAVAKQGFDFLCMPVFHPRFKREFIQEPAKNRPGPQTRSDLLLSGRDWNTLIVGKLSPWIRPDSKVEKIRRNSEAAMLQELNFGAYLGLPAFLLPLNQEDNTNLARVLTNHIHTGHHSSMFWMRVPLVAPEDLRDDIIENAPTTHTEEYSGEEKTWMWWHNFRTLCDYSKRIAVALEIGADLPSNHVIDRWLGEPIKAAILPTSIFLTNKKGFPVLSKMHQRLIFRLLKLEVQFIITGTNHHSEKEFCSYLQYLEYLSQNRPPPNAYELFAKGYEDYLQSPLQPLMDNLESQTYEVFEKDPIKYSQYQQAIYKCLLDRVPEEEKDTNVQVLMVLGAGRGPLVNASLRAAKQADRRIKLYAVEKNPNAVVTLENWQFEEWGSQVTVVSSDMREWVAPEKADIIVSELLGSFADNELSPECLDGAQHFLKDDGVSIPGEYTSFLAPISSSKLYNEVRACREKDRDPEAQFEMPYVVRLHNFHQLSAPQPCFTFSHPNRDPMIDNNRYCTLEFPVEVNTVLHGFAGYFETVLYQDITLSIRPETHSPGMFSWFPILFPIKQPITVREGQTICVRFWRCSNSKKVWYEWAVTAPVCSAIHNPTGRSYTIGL
Sequence of PRMT5/MEP50 protein complex (Q9BQA1 whole entry partner): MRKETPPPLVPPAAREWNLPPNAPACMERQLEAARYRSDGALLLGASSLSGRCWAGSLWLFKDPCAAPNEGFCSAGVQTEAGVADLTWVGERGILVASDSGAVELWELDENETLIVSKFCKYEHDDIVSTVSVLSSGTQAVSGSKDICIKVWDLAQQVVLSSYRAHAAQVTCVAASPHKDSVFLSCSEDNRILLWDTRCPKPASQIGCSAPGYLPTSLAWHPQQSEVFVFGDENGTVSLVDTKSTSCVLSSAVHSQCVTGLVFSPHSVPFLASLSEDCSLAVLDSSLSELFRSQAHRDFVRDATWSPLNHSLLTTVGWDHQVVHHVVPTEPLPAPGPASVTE

Row | SMILES | IC50
1 | Cc1cc2c(c(O[C@H]3C[C@@H](n4cc(F)c5cnc(C)nc54)[C@H](O)[C@@H]3O)c1)CNCC2 [Example 127, (1S,2S,3R,5S)-3-(5-fluoro-2-methyl-7H-pyrrolo[2,3-d]pyrimidin-7-yl)-5-((6-methyl-1,2,3,4-tetrahydroisoquinolin-8-yl)oxy)cyclopentane-1,2-diol] | 9 nM
2 | Cc1ncnc2c1ccn2[C@@H]1C[C@H](Oc2cc(Cl)c(Cl)cc2CN)[C@@H](O)[C@H]1O [Example 147, (1S,2S,3S,5R)-3-(2-(aminomethyl)-4,5-dichlorophenoxy)-5-(4-methyl-7H-pyrrolo[2,3-d]pyrimidin-7-yl)cyclopentane-1,2-diol] | 24 nM
3 | Cc1ncnc2c1ccn2[C@@H]1C[C@H]([C@@H](C)O)[C@@H](O)[C@H]1O [Example 1, (1S,2R,3R,5R)-3-((R)-1-hydroxyethyl)-5-(4-methyl-7H-pyrrolo[2,3-d]pyrimidin-7-yl)cyclopentane-1,2-diol] | 510 nM
4 | Cc1ncnc2c1ccn2[C@@H]1C[C@H]([C@@H](O)c2ccc(F)c(F)c2)[C@@H](O)[C@H]1O [Example 4, (1S,2R,5R)-3-[(R)-(3,4-difluorophenyl) (hydroxy)methyl]-5-(4-methyl-7H-pyrrolo[2,3-d]pyrimidin-7-yl)cyclopentane-1,2-diol] | 681 nM
5 | CN(c1cc(N)ncn1)[C@@H]1C[C@H]([C@@H](O)c2ccc(F)c(F)c2)[C@@H](O)[C@H]1O [Example 44, (1R,2S,3R,5R)-3-[(6-aminopyrimidin-4-yl)(methyl)amino]-5-[(R)-(3,4-difluorophenyl)(hydroxy)methyl]cyclopentane-1,2-diol] | 17000 nM
6 | Cc1ncnc2c1ccn2[C@@H]1C[C@H](Oc2ccc(F)cc2CO)[C@@H](O)[C@H]1O [Example 135, (1S,2S,3S,5R)-3-(4-fluoro-2-(hydroxymethyl)phenoxy)-5-(4-methyl-7H-pyrrolo[2,3-d]pyrimidin-7-yl)cyclopentane-1,2-diol] | 10200 nM
7 | Cc1ncnc2c1ccn2[C@@H]1C[C@H](Oc2cc(OC(C)C)c(F)c3c2CNCC3)[C@@H](O)[C@H]1O [Example 201, (1S,2S,3S,5R)-3-((5-fluoro-6-isopropoxy-1,2,3,4-tetrahydroisoquinolin-8-yl)oxy)-5-(4-methyl-7H-pyrrolo[2,3-d]pyrimidin-7-yl)cyclopentane-1,2-diol] | 310 nM
8 | Cc1cc(N(C)[C@@H]2C[C@H]([C@@H](O)c3ccc(F)c(F)c3)[C@@H](O)[C@H]2O)ncn1 [Example 34, (1S,2R,3R,5R)-3-[(R)-(3,4-difluorophenyl)(hydroxy)methyl]-5-[methyl(6-methylpyrimidin-4-yl)amino] cyclopentane-1,2-diol] | 59500 nM
9 | Cc1ncnc2c1ccn2[C@H]1C[C@H](Oc2cccc3c2C(=O)NCC3)[C@@H](O)[C@H]1O [Example 76, 8-(((1S,2S,3S,4S)-2,3-dihydroxy-4-(4-methyl-7H-pyrrolo[2,3-d]pyrimidin-7-yl)cyclopentyl)oxy)-3,4-dihydroisoquinolin-1(2H)-one] | 144000 nM
10 | O[C@@H]1[C@H](O)[C@@H]([C@H](O)c2ccc(F)c(F)c2)C[C@H]1Nc1ncnc2[nH]ccc12 [Example 27, (1S,2R,3R,5R)-3-[(S)-(3,4-difluorophenyl)(hydroxy)methyl]-5-(7H-pyrrolo[2,3-d]pyrimidin-4-ylamino)cyclopentane-1,2-diol] | 449 nM
11 | Cc1ncnc2c1ccn2[C@@H]1C[C@H](Oc2ccc(Cl)cc2OCCN)[C@@H](O)[C@H]1O [Example 153, (1S,2S,3S,5R)-3-(2-(2-aminoethoxy)-4-chlorophenoxy)-5-(4-methyl-7H-pyrrolo[2,3-d]pyrimidin-7-yl)cyclopentane-1,2-diol] | 5 nM
12 | Cc1ncnc2c1ccn2[C@@H]1C[C@H](Oc2cc(Cl)c(Cl)cc2OCCN)[C@@H](O)[C@H]1O [Example 151, (1S,2S,3S,5R)-3-(2-(2-aminoethoxy)-4,5-dichlorophenoxy)-5-(4-methyl-7H-pyrrolo[2,3-d]pyrimidin-7-yl)cyclopentane-1,2-diol] | 78 nM
13 | Cc1nc(N)nc(N(C)[C@@H]2C[C@H]([C@@H](O)c3ccc(F)c(F)c3)[C@@H](O)[C@H]2O)n1 [Example 42, (1R,2S,3R,5R)-3-[(4-amino-6-methyl-1,3,5-triazin-2-yl)(methyl)amino]-5-[(R)-(3,4-difluorophenyl) (hydroxy)methyl]cyclopentane-1,2-diol] | 1390 nM
14 | Cc1ncnc2c1ccn2[C@@H]1C[C@H](Oc2ncnc3c2CNCC3)[C@@H](O)[C@H]1O [Example 156, (1S,2S,3R,5S)-3-(4-methyl-7H-pyrrolo[2,3-d]pyrimidin-7-yl)-5-((5,6,7,8-tetrahydropyrido[4,3-d]pyrimidin-4-yl)oxy)cyclopentane-1,2-diol] | 107 nM
15 | CN(c1cc(N)ncn1)[C@@H]1C[C@H]([C@H](O)c2ccc(F)c(F)c2)[C@@H](O)[C@H]1O [Example 43, (1R,2S,3R,5R)-3-[(6-aminopyrimidin-4-yl)(methyl)amino]-5-[(S)-(3,4-difluorophenyl) (hydroxy)methyl]cyclopentane-1,2-diol] | 879 nM
16 | Cc1ncnc2c1ccn2[C@@H]1C[C@H](Oc2ccccc2CN)[C@@H](O)[C@H]1O [Example 62, (1S,2S,3S,5R)-3-(2-(aminomethyl)phenoxy)-5-(4-methyl-7H-pyrrolo[2,3-d]pyrimidin-7-yl)cyclopentane-1,2-diol] | 25 nM
17 | Cc1cc(F)ccc1O[C@H]1C[C@@H](n2ccc3c(C)ncnc32)[C@H](O)[C@@H]1O [Example 75, (1S,2S,3S,5R)-3-(4-fluoro-2-methylphenoxy)-5-(4-methyl-7H-pyrrolo[2,3-d]pyrimidin-7-yl)cyclopentane-1,2-diol] | 37800 nM
18 | Cc1ncnc2c1ccn2[C@@H]1C[C@H]([C@H](C)O)[C@@H](O)[C@H]1O [Example 2, (1S,2R,3R,5R)-3-((S)-1-hydroxyethyl)-5-(4-methyl-7H-pyrrolo[2,3-d]pyrimidin-7-yl)cyclopentane-1,2-diol] | 8380 nM
19 | CN1Cc2cccc(O[C@H]3C[C@@H](n4cc(F)c5c(N)ncnc54)[C@H](O)[C@@H]3O)c2C1 [Example 115, (1S,2S,3R,5S)-3-(4-amino-5-fluoro-7H-pyrrolo[2,3-d]pyrimidin-7-yl)-5-[(2-methyl-2,3-dihydro-1H-isoindol-4-yl)oxy]cyclopentane-1,2-diol] | 147 nM
20 | CC(F)(F)c1cc2c(c(O[C@H]3C[C@@H](n4cc(F)c5c(N)ncnc54)[C@H](O)[C@@H]3O)c1)CNCC2 [Example 112, (1S,2S,3R,5S)-3-(4-amino-5-fluoro-7H-pyrrolo[2,3-d]pyrimidin-7-yl)-5-((6-(1,1-difluoroethyl)-1,2,3,4-tetrahydroisoquinolin-8-yl)oxy)cyclopentane-1,2-diol] | 4 nM
21 | Cc1ncnc2c1ccn2[C@H]1C[C@@H](Oc2ccc(F)cc2CN)[C@H](O)[C@@H]1O [Example 67, (1R,2R,3R,5S)-3-(2-(aminomethyl)-4-fluorophenoxy)-5-(4-methyl-7H-pyrrolo[2,3-d]pyrimidin-7-yl)cyclopentane-1,2-diol] | > 200000 nM
22 | Cc1nc(N)nc2c1ccn2[C@@H]1C[C@H]([C@@H](O)c2ccc(F)c(F)c2)[C@@H](O)[C@H]1O [Example 49, (1R,2S,3R,5R)-3-(2-amino-4-methyl-7H-pyrrolo[2,3-d]pyrimidin-7-yl)-5-[(R)-(3,4-difluorophenyl)(hydroxy)methyl]cyclopentane-1,2-diol] | 105 nM
23 | Cc1ncnc2c1ccn2[C@@H]1C[C@H](Oc2ccc(F)c(F)c2CN)[C@@H](O)[C@H]1O [Example 145, (1S,2S,3S,5R)-3-(2-(aminomethyl)-3,4-difluorophenoxy)-5-(4-methyl-7H-pyrrolo[2,3-d]pyrimidin-7-yl)cyclopentane-1,2-diol] | 11 nM
24 | Cc1ncnc2c1ccn2[C@H]1C[C@@H](Oc2ccccc2CN)[C@H](O)[C@@H]1O [Example 63, (1R,2R,3R,5S)-3-(2-(aminomethyl)phenoxy)-5-(4-methyl-7H-pyrrolo[2,3-d]pyrimidin-7-yl)cyclopentane-1,2-diol] | 1060 nM
25 | Cc1ncnc2c1ccn2[C@@H]1C[C@H]([C@@H](CN)c2ccc(F)cc2)[C@@H](O)[C@H]1O [Example 52, (1S,2R,3R,5R)-3-[(1R)-2-amino-1-(4-fluorophenyl)ethyl]-5-(4-methyl-7H-pyrrolo[2,3-d]pyrimidin-7-yl)cyclopentane-1,2-diol] | 906 nM
26 | Cc1ncnc(N(C)[C@@H]2C[C@H]([C@@H](O)c3ccc(F)c(F)c3)[C@@H](O)[C@H]2O)n1 [Example 47, (1S,2R,3R,5R)-3-[(R)-(3,4-difluorophenyl)(hydroxy)methyl]-5-[methyl(4-methyl-1,3,5-triazin-2-yl)amino]cyclopentane-1,2-diol] | 29500 nM
27 | Nc1ncnc2c1c(F)cn2[C@@H]1C[C@H](Oc2cccc3ccncc23)[C@@H](O)[C@H]1O [Example 162] | 42 nM
28 | CN1CCc2c(cccc2O[C@H]2C[C@@H](n3cc(F)c4c(N)ncnc43)[C@H](O)[C@@H]2O)C1 [Example 116, (1S,2S,3R,5S)-3-(4-amino-5-fluoro-7H-pyrrolo[2,3-d]pyrimidin-7-yl)-5-((2-methyl-1,2,3,4-tetrahydroisoquinolin-5-yl)oxy)cyclopentane-1,2-diol] | 257 nM
